Where two headings read alike, the source gives them in different places.
Legend:
Format in all cases: biochemical
Ofd1 = target: T1, Ofd1 (Schizosaccharomyces pombe, UniProt Q11120); test: MALDI-TOF MS Ofd1 hydroxylation assay
T1 construct: His6 (N); made in house; host or cells: E. coli BL21(DE3)
T1 sequence (Q11120 1-515): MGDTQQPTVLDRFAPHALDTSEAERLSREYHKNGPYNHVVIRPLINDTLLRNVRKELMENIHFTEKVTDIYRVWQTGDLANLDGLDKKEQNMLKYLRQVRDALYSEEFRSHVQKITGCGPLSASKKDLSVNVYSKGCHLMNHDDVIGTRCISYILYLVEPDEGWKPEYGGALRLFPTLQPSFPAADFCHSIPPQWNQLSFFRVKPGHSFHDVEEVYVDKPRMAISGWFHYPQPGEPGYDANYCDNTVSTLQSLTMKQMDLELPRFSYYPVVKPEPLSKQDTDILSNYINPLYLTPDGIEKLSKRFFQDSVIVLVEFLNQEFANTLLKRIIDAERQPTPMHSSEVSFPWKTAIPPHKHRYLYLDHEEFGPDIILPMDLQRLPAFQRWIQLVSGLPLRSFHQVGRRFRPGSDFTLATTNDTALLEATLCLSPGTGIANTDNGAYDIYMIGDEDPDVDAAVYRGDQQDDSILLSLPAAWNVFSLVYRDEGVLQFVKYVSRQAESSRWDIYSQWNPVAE

Tpa1p = target: T2, Tpa1p (Saccharomyces cerevisiae, UniProt P40032); test: MALDI-TOF MS Tpa1p hydroxylation assay
T2 construct: His6 (N); made in house; host or cells: E. coli BL21(DE3)
Method: MALDI-TOF MS OFD1/TPA1p hydroxylation assays13
For enzyme production, the reported procedures were used.13 E. coli BL21(DE3) cells transformed with pNIC28-His6-Ofd1 or pNIC28-His6-Tpa1pΔ2-20 were cultured to an OD600 of 0.6; recombinant protein production was induced through the addition of isopropyl β-D-1-thiogalactopyranoside (IPTG) to a concentration of 0.5 mM. The induced cultures were […]
incubated overnight at 18°C with shaking, then harvested. The induced cells were suspended in 500 mM NaCl, 40 mM imidazole, 50 mM HEPES pH 7.5, sonicated, and the His-tagged protein was purified by nickel affinity chromatography.13 Both Ofd1 and Tpa1p were buffer-exchanged into 500 mM NaCl, 5% glycerol, 1 mM DTT, 50 mM HEPES pH 7.5 following […]
consisted of Ofd1 (1 µM) or Tpa1p (2 µM) with 2OG (20 µM), L-ascorbic acid (100 µM), (NH4)2Fe(SO4)2 (50 µM), RPS23 peptide (amino acid sequence
-CONH2; 25 µM) and the […]
relevant inhibitor (initially prepared in 10% DMSO, diluted to 1% DMSO in the reaction mixture) all in 50 mM HEPES pH 7.5. Reactions were quenched after 2 min (Ofd1) or 4 min (Tpa1p) by the addition of formic acid to a final concentration of 1%. The extent of hydroxylation was monitored by MALDI-TOF MS, and the IC50 curve was fit to the data using […]
LC-MS PHD2 hydroxylation assays
The PHD2 RF-MS RapidFire liquid chromatography mass spectrometry (RF-MS) assay monitors turnover of a C-terminal oxygenase dependent domain (CODD) peptide substrate […]
-CONH2 and appearance of the hydroxylated peptide product
(Pro564) in an endpoint type assay format (typical enzyme incubation time of 15 minutes).
Tris(hydroxymethyl)aminomethane was from Fisher. Ferrous ammonium sulfate (FAS), 2-oxoglutarate (2OG) and L-ascorbic acid were from Sigma Aldrich; solutions of these were prepared freshly each day. All inhibition assays were carried out in 384-well polypropylene plates (Greiner Bio-One). PHD2 assays were performed in assay buffer (50 mM Tris.Cl pH […]
were prepared using an ECHO 550 acoustic dispenser (Labcyte) and dry dispensed into 384-well polypropylene assay plates. The final assay concentration of DMSO was kept constant at 0.5%. PHD2 protein was prepared at a concentration of 300 nM in assay buffer and 25 μl dispensed across each 384-well assay plate. […] Peptide charge states were monitored in positive mode. Ion chromatogram data were extracted for the +2 charge state and peak area data integrated using RapidFire Integrator software (Agilent). % conversion of the CODD peptide substrate to the +16 hydroxylated peptide was calculated using the equation: % conversion = 100 x hydroxylated / (hydroxylated + non-hydroxylated peptide). IC50 values were determined from non-linear regression plots using GraphPad prism. […]

JARID1C (KDM5C) = JARID1C (KDM5C) (Homo sapiens, UniProt P41229); test: AlphaScreen histone demethylase assay
[1] = isolated recombinant enzyme, 1 μM, read-out: IC50 Ofd1
[2] = isolated recombinant enzyme, 2 µM, read-out: IC50 Tpa1p

JARID1C (KDM5C), sequence (P41229 whole entry): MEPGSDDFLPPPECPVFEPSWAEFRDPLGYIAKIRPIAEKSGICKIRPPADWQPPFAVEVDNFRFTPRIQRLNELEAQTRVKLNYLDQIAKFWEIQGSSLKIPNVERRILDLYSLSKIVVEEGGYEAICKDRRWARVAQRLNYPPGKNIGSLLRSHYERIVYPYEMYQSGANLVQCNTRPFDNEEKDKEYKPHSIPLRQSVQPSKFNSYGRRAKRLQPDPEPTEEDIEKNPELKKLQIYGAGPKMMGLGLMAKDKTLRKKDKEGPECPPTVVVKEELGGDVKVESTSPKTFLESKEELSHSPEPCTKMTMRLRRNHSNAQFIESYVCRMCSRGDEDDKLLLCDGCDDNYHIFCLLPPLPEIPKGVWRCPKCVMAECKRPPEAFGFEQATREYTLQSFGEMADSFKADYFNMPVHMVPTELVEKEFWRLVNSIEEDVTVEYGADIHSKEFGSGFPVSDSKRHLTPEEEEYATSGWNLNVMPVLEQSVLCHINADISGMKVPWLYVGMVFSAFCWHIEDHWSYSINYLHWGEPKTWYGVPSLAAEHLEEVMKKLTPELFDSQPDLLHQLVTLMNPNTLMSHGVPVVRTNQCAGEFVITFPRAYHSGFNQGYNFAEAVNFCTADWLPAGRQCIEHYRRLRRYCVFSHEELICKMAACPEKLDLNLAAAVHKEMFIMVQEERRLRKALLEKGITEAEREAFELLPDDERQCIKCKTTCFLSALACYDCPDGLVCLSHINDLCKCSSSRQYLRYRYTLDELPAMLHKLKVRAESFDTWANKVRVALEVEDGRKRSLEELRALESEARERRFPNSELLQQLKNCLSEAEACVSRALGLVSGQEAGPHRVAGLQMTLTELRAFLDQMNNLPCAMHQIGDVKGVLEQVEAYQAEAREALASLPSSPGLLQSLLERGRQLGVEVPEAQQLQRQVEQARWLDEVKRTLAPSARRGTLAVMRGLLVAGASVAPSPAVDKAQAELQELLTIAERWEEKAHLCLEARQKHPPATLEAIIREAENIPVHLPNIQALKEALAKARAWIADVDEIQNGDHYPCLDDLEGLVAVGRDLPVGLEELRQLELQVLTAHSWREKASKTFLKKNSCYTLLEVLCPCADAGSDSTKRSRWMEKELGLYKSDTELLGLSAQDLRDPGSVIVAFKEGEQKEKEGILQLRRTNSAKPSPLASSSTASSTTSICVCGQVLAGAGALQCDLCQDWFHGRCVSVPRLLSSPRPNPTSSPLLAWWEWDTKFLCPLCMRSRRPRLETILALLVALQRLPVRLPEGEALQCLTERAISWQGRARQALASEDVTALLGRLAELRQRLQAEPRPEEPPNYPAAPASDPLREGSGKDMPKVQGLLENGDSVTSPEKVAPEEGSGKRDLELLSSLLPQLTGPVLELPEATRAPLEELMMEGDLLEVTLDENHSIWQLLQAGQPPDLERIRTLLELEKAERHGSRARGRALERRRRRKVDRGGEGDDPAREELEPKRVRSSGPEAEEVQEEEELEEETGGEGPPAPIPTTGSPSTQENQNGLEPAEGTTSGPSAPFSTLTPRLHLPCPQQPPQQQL
T2 sequence (P40032 with tags, fused parts or gaps): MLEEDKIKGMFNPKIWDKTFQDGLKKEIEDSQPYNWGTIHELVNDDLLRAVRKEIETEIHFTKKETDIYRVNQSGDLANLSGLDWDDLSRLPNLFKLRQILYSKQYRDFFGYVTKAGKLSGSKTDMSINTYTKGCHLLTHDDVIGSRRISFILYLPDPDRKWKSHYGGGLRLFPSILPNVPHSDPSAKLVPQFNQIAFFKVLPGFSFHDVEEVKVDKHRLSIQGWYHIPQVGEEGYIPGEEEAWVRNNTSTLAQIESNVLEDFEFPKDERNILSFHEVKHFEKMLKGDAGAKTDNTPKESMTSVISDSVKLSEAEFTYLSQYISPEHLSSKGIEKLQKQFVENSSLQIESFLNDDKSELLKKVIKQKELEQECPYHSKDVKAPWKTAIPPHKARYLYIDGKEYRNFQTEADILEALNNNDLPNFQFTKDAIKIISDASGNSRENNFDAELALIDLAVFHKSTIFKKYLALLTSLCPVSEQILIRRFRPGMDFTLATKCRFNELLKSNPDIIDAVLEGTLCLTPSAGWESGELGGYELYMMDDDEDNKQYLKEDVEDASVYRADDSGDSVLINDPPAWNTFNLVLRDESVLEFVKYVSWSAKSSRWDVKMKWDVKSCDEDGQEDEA

SMILES	IC50 (Ofd1) [µM]	IC50 (Tpa1p) [µM]	IC50 (JARID1C (KDM5C); read-out: IC50 JARID1C (KDM5C)) [µM]	IC50 (Ofd1; [1]) [µM]	IC50 (Tpa1p; [2]) [µM]	IC50 (JARID1C (KDM5C)) [µM]
CC(C)(C)OC(=O)c1ccc(-n2[nH]cc(-n3ccnn3)c2=O)nc1 [IOX4]	41.3	2.3	97			
O=c1c(-n2ccnn2)c[nH]n1-c1cc(N2CCOCC2)ncn1 [Molidustat]			> 100	10.3	3.8	
O=C(O)CNC(=O)c1ncc(-c2cccc(Cl)c2)cc1O [Vadadustat]			> 100			
Cc1nc(C(=O)NCC(=O)O)c(O)c2ccc(Oc3ccccc3)cc12 [FG-4592]			> 100	8.5	12.8	
O=C(O)CNC(=O)C1C(=O)N(C2CCCCC2)C(=O)N(C2CCCCC2)C1=O [GSK1278863]	23.9	5.1				> 100

Reference: publication PMC5802278, “Molecular and cellular mechanisms of HIF prolyl hydroxylase inhibitors in clinical trials” (Chemical Science, 2017)
